Earlier results in patent US20150031774A1, “RASAGILINE ORALLY DISINTEGRATING COMPOSITIONS” (priority 2004, published 2015).

Biological target: 9-form of the enzyme monoamine oxidase (Homo sapiens, UniProt P27338)
Conditions: prior-art patents cited in background

Chain of 9-form of the enzyme monoamine oxidase (P27338 whole entry): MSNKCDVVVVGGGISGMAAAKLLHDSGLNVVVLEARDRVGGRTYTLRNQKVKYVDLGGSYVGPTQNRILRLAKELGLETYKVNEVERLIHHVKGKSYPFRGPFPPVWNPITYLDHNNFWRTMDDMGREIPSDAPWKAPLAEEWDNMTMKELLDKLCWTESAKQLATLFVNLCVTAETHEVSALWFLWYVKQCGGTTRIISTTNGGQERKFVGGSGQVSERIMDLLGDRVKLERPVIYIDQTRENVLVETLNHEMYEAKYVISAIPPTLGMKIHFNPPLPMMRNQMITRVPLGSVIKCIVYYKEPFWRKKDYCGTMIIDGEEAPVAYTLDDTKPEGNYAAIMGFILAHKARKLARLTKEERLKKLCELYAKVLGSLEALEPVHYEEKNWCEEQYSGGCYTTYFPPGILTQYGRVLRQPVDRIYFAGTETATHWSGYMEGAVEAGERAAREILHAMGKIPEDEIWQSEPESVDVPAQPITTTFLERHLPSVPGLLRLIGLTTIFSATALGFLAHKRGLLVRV

SMILES: C#CCN[C@@H]1CCc2ccccc21 [Rasagiline, R(+)-propargyl-1-aminoindan]
- selectivity of monoamine oxidase inhibition: selective inhibitor
